Source: US20240360148A1 (SUVALENT THERAPEUTICS, INC., priority 2021, published 2024)

Target: SAE1 (Homo sapiens (Human), UniProt Q9UBE0+Q9UBT2)
Test: SAE High Throughput Biochemical Assay (HTRF), 15 min preincubation
Details: read-out: 15 min preincubation HTRF IC50 (μM) Ave, SAE1 12.5 nM, ATP 100 μM
Method: Assay buffer was prepared [50 mM HEPES, pH 7.5, 0.1% BSA and 10 mM MgCl2] as was the Stop Buffer [100 mM HEPES, pH 7.5, 0.05% Tween20, and 410 mM KF]. The 2×Reaction Buffer [80 nM SUMO-GST, 80 nM UBC9-His, 200 μM ATP and diluted in Assay Buffer] and Antibody Reaction Mix [13.34 nM anti-GSTXL665, 1.66 nM anti-His EuK and Diluted in Stop Buffer] were also prepared. Compounds were dissolved at 200×in DMSO in a 384-well plate. Serial dilutions were performed in DMSO for each compound, and then each concentration was diluted another 50-fold in Assay Buffer, to 4× the final concentration. 2.5 μL of each concentration was transferred into its own well in a 384-well plate. SAE1 was then diluted to 4× in Assay Buffer, and 2.5 μL of 4×SAE1 was mixed into each compound-containing well. After incubating for 15 minutes at RT, 5 μL of 2×Reaction Buffer was mixed into every well. Then after another 45 minutes at RT, 10 μL of Antibody Reaction Mix was added and mixed into every well. This plate was then read on an HTRF-compatible plate reader after 2 hours at RT, and again after sitting at RT overnight. [Final Component Concentrations: SAE1: 12.5 nM; SUMO-GST: 40 nM; UBC9-His: 40 nM; Anti-GST-XL665: 6.67 nM; Anti-His-EuK: 0.83 nM; and ATP: 100 μM] Alternatively, the compounds are tested at a single concentration of 25 micromolar and the percent of control is measured.

Sequence of SAE1 (Q9UBE0 whole entry): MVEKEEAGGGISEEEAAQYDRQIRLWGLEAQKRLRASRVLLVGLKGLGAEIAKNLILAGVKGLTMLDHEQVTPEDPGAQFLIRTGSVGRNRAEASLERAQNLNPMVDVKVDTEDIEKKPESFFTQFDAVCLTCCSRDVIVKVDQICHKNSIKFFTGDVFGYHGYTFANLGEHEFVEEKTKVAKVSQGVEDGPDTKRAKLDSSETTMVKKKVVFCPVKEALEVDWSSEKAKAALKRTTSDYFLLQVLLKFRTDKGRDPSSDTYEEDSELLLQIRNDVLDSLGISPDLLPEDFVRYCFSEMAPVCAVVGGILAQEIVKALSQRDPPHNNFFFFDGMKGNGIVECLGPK
Sequence of SAE1 (Q9UBT2 whole entry): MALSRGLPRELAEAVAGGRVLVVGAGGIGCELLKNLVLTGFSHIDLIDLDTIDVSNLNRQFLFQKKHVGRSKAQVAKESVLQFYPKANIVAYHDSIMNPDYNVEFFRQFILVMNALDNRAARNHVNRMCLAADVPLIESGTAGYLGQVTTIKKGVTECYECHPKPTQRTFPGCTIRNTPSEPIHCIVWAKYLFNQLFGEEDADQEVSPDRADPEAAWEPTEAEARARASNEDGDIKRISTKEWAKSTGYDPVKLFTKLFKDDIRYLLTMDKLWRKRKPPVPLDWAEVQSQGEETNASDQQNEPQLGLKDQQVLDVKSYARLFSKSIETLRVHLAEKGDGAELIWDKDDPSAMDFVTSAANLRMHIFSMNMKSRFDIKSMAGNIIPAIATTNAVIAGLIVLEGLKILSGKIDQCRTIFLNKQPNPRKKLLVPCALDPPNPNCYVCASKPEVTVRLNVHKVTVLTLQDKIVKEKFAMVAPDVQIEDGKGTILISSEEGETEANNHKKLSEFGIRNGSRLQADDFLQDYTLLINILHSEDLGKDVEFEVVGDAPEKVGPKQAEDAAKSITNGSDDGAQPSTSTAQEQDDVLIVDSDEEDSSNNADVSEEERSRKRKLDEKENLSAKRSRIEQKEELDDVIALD

| SMILES | IC50 [µM] |
| --- | --- |
| CCn1cc(-c2c(C3CN(C(=O)/C=C/CN(C)C)Cc4sc(C#N)cc43)cnn2C)c(C(F)(F)F)n1 (stereo not shown) [Example 198, (E)-6-(4-(Dimethylamino)but-2-enoyl)-4-(1′-ethyl-2-methyl-3′-(trifluoromethyl)-1′H,2H-[3,4′-bipyrazol]-4-yl)-4,5,6,7-tetrahydrothieno[2,3-c]pyridine-2-carbonitrile] | > 25 |
| CCOC(=O)CCn1cc(-c2ccccc2[C@@H]2CN(C(=O)/C=C/CN(C)C)Cc3sc(C#N)cc32)c(C(F)(F)F)n1 [Example 170, Ethyl (S,E)-3-(4-(2-(2-cyano-6-(4-(dimethylamino)but-2-enoyl)-4,5,6,7-tetrahydrothieno[2,3-c]pyridin-4-yl)phenyl)-3-(trifluoromethyl)-1H pyrazol-1-yl)propanoate] | 10.2 |
| CCn1cc(-c2ccccc2[C@@H]2CN(C(=O)/C=C/CN3CCC(c4ccccc4)C3)Cc3sc(C#N)cc32)c(C(F)(F)F)n1 (stereo partly drawn) [Example 35, (4S)-4-(2-(1-ethyl-3-(trifluoromethyl)-1 H-pyrazol-4-yl)phenyl)-6-((E)-4-(3-phenylpyrrolidin-1-yl)but-2-enoyl)-4,5,6,7-tetrahydrothieno[2,3-c]pyridine-2-carbonitrile] | > 25 |
| CCn1cc(-c2ccccc2[C@@H]2CN(C(=O)/C=C/[C@@H](COC)NC)Cc3sc(C#N)cc32)c(C(F)(F)F)n1 [Example 85, (S)-4-(2-(1-Ethyl-3-(trifluoromethyl)-1 H-pyrazol-4-yl)phenyl)-6-((S, E)-5-methoxy-4-(methylamino)pent-2-enoyl)-4,5,6,7-tetrahydrothieno[2,3-c]pyridine-2-carbonitrile] | > 25 |
| CC(C(=O)N(C)C)n1cc(-c2ccccc2[C@@H]2CN(C(=O)/C=C/CN(C)C)Cc3sc(C#N)cc32)c(C(F)(F)F)n1 (stereo partly drawn) [Example 163, 2-(4-(2-((S)-2-Cyano-6-((E)-4-(dimethylamino)but-2-enoyl)-4,5,6,7-tetrahydrothieno[2,3-c]pyridin-4-yl)phenyl)-3-(trifluoromethyl)-1 H-pyrazol-1-yl)-N, N-dimethylpropanamide] | 8.68 |
| CC(C(=O)N(C)C)n1cc(-c2ccccc2[C@@H]2CN(C(=O)/C=C/CN(C)C)Cc3sc(C#N)cc32)c(C(F)(F)F)n1 (stereo partly drawn) [Example 164, 2-(4-(2-((S)-2-Cyano-6-((E)-4-(dimethylamino)but-2-enoyl)-4,5,6,7-tetrahydrothieno[2,3-c]pyridin-4-yl)phenyl)-3-(trifluoromethyl)-1 H-pyrazol-1-yl)-N, N-dimethylpropanamide] | 10.9 |
| CN(C)C/C=C/C(=O)N1Cc2sc(C#N)cc2[C@H](c2ccccc2-c2cn(Cc3ncno3)nc2C(F)(F)F)C1 [Example 166, (S,E)-4-(2-(1-((1,2,4-Oxadiazol-5-yl)methyl)-3-(trifluoromethyl)-1H pyrazol-4-yl)phenyl)-6-(4-(dimethylamino)but-2-enoyl)-4,5,6,7-tetrahydrothieno[2,3-c]pyridine-2-carbonitrile] | 19.9 |
| C=CC(=O)N1Cc2sc(C#N)cc2C(c2ccc(N)cc2-c2cn(CC)nc2C(F)(F)F)C1 (stereo not shown) [Compound 228] | 2.07 |
| CCn1cc(-c2c(F)cccc2[C@@H]2CN(C(=O)/C=C/CN[C@@H]3CCOC3)Cc3sc(C#N)cc32)c(C(F)(F)F)n1 [Example 55, (S)-4-(2-(1-ethyl-3-(trifluoromethyl)-1 H-pyrazol-4-yl)-3-fluorophenyl)-6-((E)-4-(((R)-tetrahydrofuran-3-yl)amino)but-2-enoyl)-4,5,6,7-tetrahydrothieno[2,3-c]pyridine-2-carbonitrile] | 1.66 |
| CCn1cc(-c2ccccc2[C@@H]2CN(C(=O)/C=C/[C@H](C)N)Cc3sc(C#N)cc32)c(C(F)(F)F)n1 [Example 49, (S)-6-((S,E)-4-aminopent-2-enoyl)-4-(2-(1-ethyl-3-(trifluoromethyl)11 H-pyrazol-4-yl)phenyl)-4,5,6,7-tetrahydrothieno[2,3-c]pyridine-2-carbonitrile] | 10.1 |
| CN(C)C/C=C/C(=O)N1Cc2sc(C#N)cc2[C@H](c2ccccc2-c2c[nH]nc2C(F)(F)F)C1 [Example 153, (S, E)-6-(4-(Dimethylamino)but-2-enoyl)-4-(2-(3-(trifluoromethyl)-1 H-pyrazol-4-yl)phenyl)-4,5,6,7-tetrahydrothieno[2,3-c]pyridine-2-carbonitrile] | 9.68 |
| CN(C)C/C=C/C(=O)N1Cc2sc(C#N)cc2[C@H](c2ccccc2-c2cn(-c3ccncc3F)nc2C(F)(F)F)C1 [Example 157, (S,E)-6-(4-(Dimethylamino)but-2-enoyl)-4-(2-(1-(3-fluoropyridin-4-yl)-3-(trifluoromethyl)-1H pyrazol-4-yl)phenyl)-4,5,6,7-tetrahydrothieno[2,3-c]pyridine-2-carbonitrile] | 18.6 |
| CCn1cc(-c2c(F)cccc2[C@@H]2CN(C(=O)/C=C/CNC3CCN(C(C)=O)CC3)Cc3sc(C#N)cc32)c(C(F)(F)F)n1 [Example 57, (S, E)-6-(4-((1-acetylpiperidin-4-yl)amino)but-2-enoyl)-4-(2-(1-ethyl-3-(trifluoromethyl)-1 H-pyrazol-4-yl)-3-fluorophenyl)-4,5,6,7-tetrahydrothieno[2,3-c]pyridine-2-carbonitrile] | > 25 |
| CN(C)C/C=C/C(=O)N1Cc2sc(C#N)cc2[C@H](c2ccccc2-c2cn(S(C)(=O)=O)nc2C(F)(F)F)C1 [Example 168, (S, E)-6-(4-(Dimethylamino)but-2-enoyl)-4-(2-(1-(methylsulfonyl)-3-(trifluoromethyl)-1 H pyrazol-4-yl)phenyl)-4,5,6,7-tetrahydrothieno[2,3-c]pyridine-2-carbonitrile] | 18.8 |
| CCn1cc(-c2ccccc2[C@@H]2CN(C(=O)/C=C/CCN(C)C)Cc3sc(C#N)cc32)c(C(F)(F)F)n1 [Example 16] | 18.1 |
| CCn1cc(-c2c(C3CN(C(=O)/C=C/CN(C)C)Cc4sc(C#N)cc43)ccc(F)c2Cl)c(C(F)(F)F)n1 (stereo not shown) [Example 187, (E)-4-(3-Chloro-2-(1-ethyl-3-(trifluoromethyl)-1 H-pyrazol-4-yl)-4-fluorophenyl)-6-(4-(dimethylamino)but-2-enoyl)-4,5,6,7-tetrahydrothieno[2,3-c]pyridine-2-carbonitrile] | 8.1 |
| CN(C)C/C=C/C(=O)N1Cc2sc(C#N)cc2C(c2ccccc2-c2cn(CCC#N)nc2C(F)(F)F)C1 (stereo not shown) [Example 154, (E)-4-(2-(1-(2-Cyanoethyl)-3-(trifluoromethyl)-1H pyrazol-4-yl)phenyl)-6-(4-(dimechylamino)but-2-enoyl)-4,5,6,7-tetrahydrothieno[2,3-c]pyridine-2-carbonitrile] | 7.34 |
| CCn1cc(-c2cc(C)ccc2C2CN(C(=O)/C=C/CN(C)C)Cc3sc(C#N)cc32)c(C(F)(F)F)n1 (stereo not shown) [Example 210, (E)-6-(4-(Dimethylamino)but-2-enoyl)-4-(2-(1-ethyl-3-(trifluoromethyl)-1 H pyrazol-4-yl)-4-methylphenyl)-4,5,6,7-tetrahydrothieno[2,3-c]pyridine-2-carbonitrile] | 19.7 |
| CN(C)C/C=C/C(=O)N1Cc2sc(C#N)cc2[C@H](c2ccccc2C#N)C1 [Example 4, (S, E)-4-(2-Cyanophenyl)-6-(4-(dimethylamino)but-2-enoyl)-4,5,6,7-tetrahydrothieno[2,3-c]pyridine-2-carbonitrile] | > 25 |
